The results in this text go back to BindingDB's records for doi:10.7270/Q2W37TVH (Novartis Pharma, 1997).

Some results are limits rather than exact numbers.

The target in the assay is Dihydroorotate dehydrogenase (quinone), mitochondrial (Homo sapiens, UniProt Q02127). In words: Spectrophotometric Assay. An excerpt:
Spectrophotometric assay using crude human, recombinant DHODHase.

Dihydroorotate dehydrogenase (quinone), mitochondrial, sequence (Q02127 whole entry): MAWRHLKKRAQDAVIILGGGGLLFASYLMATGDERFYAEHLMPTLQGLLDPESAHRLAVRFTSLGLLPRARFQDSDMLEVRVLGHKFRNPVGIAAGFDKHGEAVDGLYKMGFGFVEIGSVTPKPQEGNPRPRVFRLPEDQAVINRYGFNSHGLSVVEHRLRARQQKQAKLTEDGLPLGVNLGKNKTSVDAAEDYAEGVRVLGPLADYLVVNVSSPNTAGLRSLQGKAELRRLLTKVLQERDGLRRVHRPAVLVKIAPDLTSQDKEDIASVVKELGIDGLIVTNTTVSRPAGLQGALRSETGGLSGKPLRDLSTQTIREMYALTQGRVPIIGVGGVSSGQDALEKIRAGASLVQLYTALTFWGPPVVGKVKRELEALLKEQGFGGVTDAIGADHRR

Compound `CC(C)(C)C(=O)C(C#N)C(=O)Nc1ccc(C(F)(F)F)cc1` (stereo not drawn) [Alpha-cyano-beta-hydroxy enamide, 4] had an IC50 of 16.2 µM. Compound `N#C/C(C(=O)Nc1ccc(C(F)(F)F)cc1)=C1\CCCO1` [Tetrahydrofuranyl derivative, 7 (Z)] had an IC50 of more than 50 µM.

In turn, `CC(=O)C(C#N)C(=O)Nc1ccc(C#N)cc1` (stereo not drawn) [Alpha-cyano-beta-hydroxy enamide, 3] had an IC50 of 1.3 µM.

In the case of `CC(=O)C(C#N)C(=O)Nc1ccccc1` (stereo not drawn) [Alpha-cyano-beta-hydroxy enamide, 2], the IC50 was 15.2 µM. `N#C/C(C(=O)Nc1ccc(C(F)(F)F)cc1)=C1\CCCCO1` [Tetrahydropyranyl derivative, 8 (Z)]: the half-inhibitory concentration (IC50) is more than 50 µM.

`CC(C)(C)CCC(=O)C(C#N)C(=O)Nc1ccc(C(F)(F)F)cc1` (stereo not drawn) [Alpha-cyano-beta-hydroxy enamide, 5] had an IC50 of 0.13 µM.

`N#C/C(C(=O)Nc1ccc(C(F)(F)F)cc1)=C1/CCCCO1` [Tetrahydropyranyl derivative, 8 (E)] registered an IC50 of more than 50 µM.

Regarding `N#Cc1ccc(NC(=O)C(C#N)C(=O)C2CC2)cc1` (stereo not drawn) [Alpha-cyano-beta-hydroxy enamide, 6], the IC50 was 0.6 µM. In the case of `N#C/C(C(=O)Nc1ccc(C(F)(F)F)cc1)=C1/CCOC1` [Tetrahydrofuranyl derivative, 7 (E)], the concentration for half-maximal inhibition (IC50) was more than 50 µM.

As a reminder, the IC50 is the concentration needed to halve the response being measured. A lower IC50 goes with greater potency in that assay.
